How the values were obtained:
[1] = tested on: ERK and FAK (pERK2, pFAK); assay: Activation of ERK and FAK (CB1 signaling) in hippocampal slice cultures, immunoblot; type: cell-based, rat
Protocol: A: Untreated slices were used to determine basal antigen levels (lane 1), while other slices were exposed to the CB1 agonist R-methanandamide (A) in the absence (lane 2) or presence of the antagonist H (lane 3). B: Integrated optical densities for pERK2 (mean±SEM) were determined by image analysis (ANOVA: P=0.014). C: Treatment groups include control slices (lane 1) and slices treated with the FAAH inhibitor B (lane 2), the transporter inhibitor C (lane 3), the B/C combination (lane 4), or B/C with 20 μM F (lane 5). D: Image analysis data for pERK2 are shown (ANOVA: P=0.015).
Hippocampal slice cultures. Sprague-Dawley rats (Charles River Laboratories; Wilmington, Mass.) were housed following guidelines from National Institutes of Health. […] Slices were maintained in culture for a 15-20-day maturation period before experiments were initiated. Activation of extracellular signal regulated-kinase (ERK) and focal adhesion kinase (FAK). […] Other slices were treated with 100-500 nM B, 10-50 μM C, or a combination of the two in the absence or presence of either H or F (Cal-Biochem). […] Integrated optical density of the bands was determined at high resolution with BIOQUANT software (R & M Biometrics, Nashville, Tenn.). […]

[2] = tested on: AMPA-injected dorsal hippocampus of adult Sprague-Dawley rats; type: in vivo, rat
Description: Groups of adult rats received a 2.5-μl unilateral injection into the dorsal hippocampus, containing vehicle only (veh; n=10), 63 nmol AMPA (insult; n=19), or AMPA co-administered with 250 nmol of the CB1 agonist A (n=12). At 4-7 days post-injection, brains were rapidly removed under ice-cold conditions containing protease inhibitors, and the ipsilateral dorsal hippocampus dissected for immunoblotting. Spectrin breakdown product BDPN, postsynaptic marker GluR1, presynaptic marker synapsin II, and actin were assessed on single immunoblots (FIG. 3A).
At 4-7 days post-injection, ipsilateral dorsal hippocampal tissue was rapidly dissected using ice-cold buffers with protease inhibitors.
Blots were routinely stained for a protein load control (e.g., actin). Anti-IgG-alkaline phosphatase conjugates were used for secondary antibody incubation and development of immunoreactive species was terminated prior to maximum intensity in order to avoid saturation. Integrated optical density of the bands was determined at high resolution with BIOQUANT software (R & M Biometrics, Nashville, Tenn.). […] In vivo excitotoxicity. […] Using stereotaxic coordinates (−5.3 mm Bregma, −2.5 mm lateral), a 2.5-μl injection was administered to the right dorsal hippocampus (−2.9 mm from skull surface). Vehicle consisted of 50% DMSO in a phosphate-buffered saline solution. The insult included 63 nmol AMPA excitotoxin in the absence or presence of A (250 nmol) or the drug combination of B (0.75 nmol) and C (75 nmol). Following the injections, wounds were sutured and animals placed back in their home cage for recovery. After 4-7 days, brains were rapidly removed and either fixed in 4% paraformaldehyde or the dorsal hippocampal tissue dissected and snap frozen in dry ice.

[3] = tested on: hippocampal slice cultures; assay: In vitro excitotoxicity: AMPA insult in cultured hippocampal slices, immunoblot for BDPN and GluR1; settings: 100 μM AMPA 20 min, drug post-insult, 24 h; B/C 0.5 μM and 50 μM
Protocol: Hippocampal slice cultures were infused with an excitotoxic level of AMPA for 20 min, followed by a 10-min washout period. […] The slices were harvested 24 h post-insult in groups of 6-8 each, along with untreated sister cultures, and assessed by immunoblotting for calpain-mediated spectrin breakdown product BDPN (A, C) and the postsynaptic marker GluR1 (B, D). Representative antigen staining is shown with a protein load control (con) from the same blots. Graphs contain integrated optical densities (mean±SEM) as determined by image analysis.
Chemicals and antibodies. […] Glutamatergic ligands and antagonists were obtained from Tocris (Ellisville, Mo.). […] Hippocampal slice cultures. Sprague-Dawley rats (Charles River Laboratories; Wilmington, Mass.) were housed following guidelines from National Institutes of Health. […] Slices were maintained in culture for a 15-20-day maturation period before experiments were initiated. […] Integrated optical density of the bands was determined at high resolution with BIOQUANT software (R & M Biometrics, Nashville, Tenn.). […] At such time, slices were rapidly harvested, homogenized in lysis buffer, and analyzed by immunoblot for BDPN, GluR1, and protein load control.

Compound	melting point	other results
O=S(=O)(F)CCCCCCCc1ccc(OCc2ccccc2)cc1	35 to 38 °C	–
O=S(=O)(F)CCCCCc1ccc(OCc2ccccc2)cc1	66 to 68 °C	–
O=S(=O)(F)CCCCCCCc1ccc(O)cc1	47 to 51 °C	–
O=S(=O)(F)CCCCCc1ccc(O)cc1	32 to 35 °C	–
O=S(=O)(F)CCCCOc1ccccc1	74 to 76 °C	–
COS(=O)(=O)CCCCCCCc1ccc(OCc2ccccc2)cc1	57 to 59 °C	–
O=C(CCCOc1ccc(OCc2ccccc2)cc1)C(F)(F)F	59 to 61 °C	–
O=C(CCCCCOc1ccccc1OCc1ccccc1)C(F)(F)F	31 to 32 °C	–
O=C(CCCCOc1ccccc1)C(F)(F)F	50 to 51 °C	–
O=C(CCCCOc1ccc(OCc2ccccc2)cc1)C(F)(F)F	95.5 to 96 °C	–
O=C(CCCCCOc1ccc(OCc2ccccc2)cc1)C(F)(F)F	59 to 60 °C	–
O=C(CCCCCCOc1ccc(OCc2ccccc2)cc1)C(F)(F)F	82 to 83 °C	–
O=C(CCCOc1ccccc1OCc1ccccc1)C(F)(F)F	50 to 51 °C	–
O=C(CCCCOc1ccc(O)cc1)C(F)(F)F	63 to 64 °C	–
O=C(CCCCCCOc1ccc(O)cc1)C(F)(F)F	61 to 62 °C	–
O=C(CCCCOc1ccccc1O)C(F)(F)F	51 to 52 °C	–
O=C(NCCCc1ccccc1)NCc1ccccn1	89 to 90 °C	–
O=C(NCCCc1ccccc1)Nc1ccccn1	127 to 128 °C	–
Cc1nnc(C(=O)CCCCCCOc2ccccc2)o1	75 to 77 °C	–
Cc1nnc(C(=O)CCCCCCOc2ccc(OCc3ccccc3)cc2)o1	118 to 120 °C	–
Cc1nnc(C(=O)CCCCCCOc2ccc(O)cc2)o1	134 to 135 °C	–
O=C1c2ccccc2S(=O)(=O)N1CCCCOc1ccccc1	92 to 94 °C	–
O=C1c2ccccc2S(=O)(=O)N1CCCCOc1ccc(OCc2ccccc2)cc1	82 to 84 °C	–
O=C1c2ccccc2S(=O)(=O)N1CCCCOc1ccc(O)cc1	107 to 109 °C	–
Oc1cccc(OCCCC(O)(O)C(F)(F)F)c1 (hydrate or solvate)	76 to 77 °C	–
CCCCC/C=C\C/C=C\C/C=C\C/C=C\CCCC(=O)N[C@H](C)CO [A, R-methanandamide]	–	activation of ERK and FAK (pERK2, pFAK over basal levels) ([1]; slices treated 30 min, A 10-50 μM, 100 nM B and 10 μM C applied individually, B/C combination): results in the activation of extracellular signal regulated-kinase (ERK) as well as focal adhesion kinase (FAK); protection of postsynaptic GluR1 levels (reduction of GluR1 decline), average ([2]; co-injected with 63 nmol AMPA, 4-7 days post-injection): 58%; reduction of spectrin BDPN evident 4-7 days post-insult ([2]; co-injected with 63 nmol AMPA, A 250 nmol, B 0.75 nmol and C 75 nmol): 78%; protection of presynaptic markers (synapsin II, synaptophysin) ([2]; co-injected with AMPA, 4-7 days): protected by a similar level; reduction of cytoskeletal damage (calpain-mediated spectrin breakdown product BDPN) [3]: 72%
Cc1c(C(=O)NN2CCOCC2)nn(-c2ccc(Cl)cc2Cl)c1-c1ccc(I)cc1 [H]	–	prevention of the effects of agonist treatment and of B/C potentiation on ERK/FAK activation by CB1 antagonist ([1]; H 10 μM): prevented

From patent publication US20100234379A1, “Dual modulation of endocannabinoid transport and fatty-acid amide hydrolase for treatment of excitotoxicity” (priority 2005, published 2010)
